# Assay results: patent US20090005363A1, “Organic Compounds” (priority 2005, published 2009)
# Molecular target: mGluR5 (Homo sapiens, UniProt P41594)
# Test: inhibition of the glutamate induced elevation of intracellular Ca2+ concentration
# Details: inhibition of glutamate induced elevation of intracellular Ca2+ concentration at 10 μM
# Source text: This can be determined in vitro for example at recombinant human metabotropic glutamate receptors, especially PLC-coupled subtypes thereof such as mGluR5, using different procedures like, for example, measurement of the inhibition of the agonist induced elevation of intracellular Ca^2+ concentration in accordance with L. P. Daggett et al., Neuropharm.
# Sequence of mGluR5 (P41594 21-1180 isoform P41594-2 limits assumed): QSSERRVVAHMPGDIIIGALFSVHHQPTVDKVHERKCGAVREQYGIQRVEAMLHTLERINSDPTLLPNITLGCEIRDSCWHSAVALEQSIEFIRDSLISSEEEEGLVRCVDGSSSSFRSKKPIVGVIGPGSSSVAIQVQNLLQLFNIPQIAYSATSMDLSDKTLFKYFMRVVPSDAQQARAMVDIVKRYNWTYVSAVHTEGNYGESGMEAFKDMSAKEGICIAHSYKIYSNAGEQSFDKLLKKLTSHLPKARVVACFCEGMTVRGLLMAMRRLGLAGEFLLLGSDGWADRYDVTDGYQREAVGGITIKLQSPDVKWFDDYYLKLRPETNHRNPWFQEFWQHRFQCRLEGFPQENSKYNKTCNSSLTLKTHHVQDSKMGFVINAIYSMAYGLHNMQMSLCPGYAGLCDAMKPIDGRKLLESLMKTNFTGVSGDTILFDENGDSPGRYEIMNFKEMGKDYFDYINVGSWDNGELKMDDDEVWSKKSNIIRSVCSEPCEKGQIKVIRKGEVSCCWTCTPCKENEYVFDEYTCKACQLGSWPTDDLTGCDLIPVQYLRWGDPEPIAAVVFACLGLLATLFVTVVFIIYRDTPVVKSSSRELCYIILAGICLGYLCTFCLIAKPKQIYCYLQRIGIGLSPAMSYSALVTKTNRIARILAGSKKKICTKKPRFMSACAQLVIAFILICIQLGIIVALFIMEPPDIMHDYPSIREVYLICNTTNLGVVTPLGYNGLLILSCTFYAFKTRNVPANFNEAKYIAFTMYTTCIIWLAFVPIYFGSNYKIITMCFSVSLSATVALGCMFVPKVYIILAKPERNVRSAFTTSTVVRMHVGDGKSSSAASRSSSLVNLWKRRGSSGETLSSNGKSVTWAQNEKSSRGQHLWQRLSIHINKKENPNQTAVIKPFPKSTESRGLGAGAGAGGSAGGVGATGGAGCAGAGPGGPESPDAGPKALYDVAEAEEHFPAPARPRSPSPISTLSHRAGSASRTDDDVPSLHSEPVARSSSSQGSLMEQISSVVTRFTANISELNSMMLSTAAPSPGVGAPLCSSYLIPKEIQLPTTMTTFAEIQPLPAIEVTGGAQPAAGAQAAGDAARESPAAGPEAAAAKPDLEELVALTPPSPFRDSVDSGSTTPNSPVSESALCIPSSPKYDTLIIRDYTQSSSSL
row,Structure (SMILES),mGluR5 Activity inh. at 10 μM [%]
1,"Cc1ccc(Nc2ncc(C(=O)N3CCCC4CCCC43)cc2Cl)cn1 (stereo not shown) [Compound 4.25, [5-Chloro-6-(6-methyl-pyridin-3-ylamino)-pyridin-3-yl]-(octahydro-[1]pyridin-1-yl)-methanone]",98
2,"Cc1ccc(Nc2ncc(C(=O)N3CCC[C@@H]4CCC[C@@H]43)cc2Cl)cn1 [Compound 4.26, [5-Chloro-6-(6-methyl-pyridin-3-ylamino)-pyridin-3-yl]-(4aS,7aS)-octahydro-[1]pyridin-1-yl-methanone]",93
3,"C/C=C\C1CCCCN1C(=O)c1cnc(Nc2ccc(C)nc2)c(Cl)c1 (stereo not shown) [Compound 4.56, [5-Chloro-6-(6-methyl-pyridin-3-ylamino)-pyridin-3-yl]-[((Z)-2-propenyl)-piperidin-1-yl]-methanone]",97

# Same assay, conditions: read-out: mGluR5 Activity inh. at 10 μM [%]
row,Structure (SMILES),inhibition at 10 µM [%]
1,"Cc1ccc(Nc2ccc(C(=O)N3CCCCCCC3)cn2)cn1 [Compound 4.16, Azocan-1-yl-[6-(6-methyl-pyridin-3-ylamino)-pyridin-3-yl]-methanone]",81
2,"CCC1CCCCN1C(=O)c1cnc(Nc2ccc(C)nc2)c(Cl)c1 (stereo not shown) [Compound 4.17, [5-Chloro-6-(6-methyl-pyridin-3-ylamino)-pyridin-3-yl]-(2-ethyl-piperidin-1-yl)-methanone]",98
3,"CC[C@@H]1CCCCN1C(=O)c1cnc(Nc2ccc(C)nc2)c(Cl)c1 [Compound 4.18, [5-Chloro-6-(6-methyl-pyridin-3-ylamino)-pyridin-3-yl]-((R)-2-ethyl-piperidin-1-yl)-methanone]",97
4,"CC[C@H]1CCCCN1C(=O)c1cnc(Nc2ccc(C)nc2)c(Cl)c1 [Compound 4.19, [5-Chloro-6-(6-methyl-pyridin-3-ylamino)-pyridin-3-yl]-((S)-2-ethyl-piperidin-1-yl)-methanone]",97
5,"Cc1ccc(Nc2ncc(C(=O)N3CCCC(C)C3C)cc2Cl)cn1 (stereo not shown) [Compound 4.20, [5-Chloro-6-(6-methyl-pyridin-3-ylamino)-pyridin-3-yl]-(2,3-dimethyl-piperidin-1-yl)-methanone]",100
6,"Cc1ccc(Nc2ncc(C(=O)N3CCC[C@H](C)[C@@H]3C)cc2Cl)cn1 [Compound 4.21, [5-Chloro-6-(6-methyl-pyridin-3-ylamino)-pyridin-3-yl]-((2S,3S)-2,3-dimethyl-piperidin-1-yl)-methanone]",99
7,"Cc1ccc(Nc2ncc(C(=O)N3CCC[C@@H](C)[C@H]3C)cc2Cl)cn1 [Compound 4.22, [5-Chloro-6-(6-methyl-pyridin-3-ylamino)-pyridin-3-yl]-((2R,3R)-2,3-dimethyl-piperidin-1-yl)-methanone]",98
8,"Cc1ccc(Nc2ncc(C(=O)N3CCCC[C@@H]3C)cc2Cl)cn1 [Compound 4.23, [5-Chloro-6-(6-methyl-pyridin-3-ylamino)-pyridin-3-yl]-((S)-2-methyl-piperidin-1-yl)-methanone]",95
9,"Cc1ccc(Nc2ncc(C(=O)N3CCCC[C@H]3C)cc2Cl)cn1 [Compound 4.24, [5-Chloro-6-(6-methyl-pyridin-3-ylamino)-pyridin-3-yl]-((R)-2-methyl-piperidin-1-yl)-methanone]",92
10,"Cc1ccc(Nc2ncc(C(=O)N3CCCCC3C(C)C)cc2Cl)cn1 (stereo not shown) [Compound 4.28, [5-Chloro-6-(6-methyl-pyridin-3-ylamino)-pyridin-3-yl]-(2-isopropyl-piperidin-1-yl)-methanone]",93
11,"Cc1ccc(Nc2ncc(C(=O)N3CCCC[C@@H]3C(C)C)cc2Cl)cn1 [Compound 4.29, [5-Chloro-6-(6-methyl-pyridin-3-ylamino)-pyridin-3-yl]-((R)-2-isopropyl-piperidin-1-yl)-methanone]",86
12,"Cc1ccc(Nc2ncc(C(=O)N3CCCC[C@H]3C(C)C)cc2Cl)cn1 [Compound 4.30, [5-Chloro-6-(6-methyl-pyridin-3-ylamino)-pyridin-3-yl]-((S)-2-isopropyl-piperidin-1-yl)-methanone]",96
13,"CCCC1CCCCN1C(=O)c1cnc(Nc2ccc(C)nc2)c(Cl)c1 (stereo not shown) [Compound 4.34, [5-Chloro-6-(6-methyl-pyridin-3-ylamino)-pyridin-3-yl]-(2-propyl-piperidin-1-yl)-methanone]",98
14,"CCC[C@H]1CCCCN1C(=O)c1cnc(Nc2ccc(C)nc2)c(Cl)c1 [Compound 4.35, [5-Chloro-6-(6-methyl-pyridin-3-ylamino)-pyridin-3-yl]-((S)-2-propyl-piperidin-1-yl)-methanone]",85
15,"CCC1CCCN(C(=O)c2cnc(Nc3ccc(C)nc3)c(Cl)c2)C1CC (stereo not shown) [Compound 4.37, [5-Chloro-6-(6-methyl-pyridin-3-ylamino)-pyridin-3-yl]-(2,3-diethyl-piperidin-1-yl)-methanone]",94
16,"CCCCC1CCCCN1C(=O)c1cnc(Nc2ccc(C)nc2)c(Cl)c1 (stereo not shown) [Compound 4.38, (2-Butyl-piperidin-1-yl)-[5-chloro-6(6-methyl-pyridin-3-ylamino)-pyridin-3-yl]-methanone]",98
17,"CCC(CC)C1CCCCN1C(=O)c1cnc(Nc2ccc(C)nc2)c(Cl)c1 (stereo not shown) [Compound 4.39, [5-Chloro-6-(6-methyl-pyridin-3-ylamino)-pyridin-3-yl]-[2-(1-ethyl-propyl)-piperidin-1-yl]-methanone]",96

row,Structure (SMILES),inhibition at 10 µM [%]
1,"CCC1C(C)CCCN1C(=O)c1cnc(Nc2ccc(C)nc2)c(Cl)c1 (stereo not shown) [Compound 4.40, [5-Chloro-6-(6-methyl-pyridin-3-ylamino)-pyridin-3-yl]-(2-ethyl-3-methyl-piperidin-1-yl)-methanone]",98
2,"Cc1ccc(Nc2ncc(C(=O)N3CCCCC3c3ccccc3)cc2Cl)cn1 (stereo not shown) [Compound 4.41, [5-Chloro-6-(6-methyl-pyridin-3-ylamino)-pyridin-3-yl]-(2-phenyl-piperidin-1-yl)-methanone]",96
3,"Cc1ccc(Nc2ncc(C(=O)N3CCCCC3c3ccccn3)cc2Cl)cn1 (stereo not shown) [Compound 4.42, [5-Chloro-6-(6-methyl-pyridin-3-ylamino)-pyridin-3-yl]-(3,4,5,6-tetrahydro-2H-[2,2′]bipyridinyl-1-yl)-methanone]",98
4,"Cc1ccc(Nc2ncc(C(=O)N3CCCCC3c3cccnc3)cc2Cl)cn1 (stereo not shown) [Compound 4.43, [5-Chloro-6-(6-methyl-pyridin-3-ylamino)-pyridin-3-yl]-(3,4,5,6-tetrahydro-2H-[2,3′]bipyridinyl-1-yl)-methanone]",100
5,"Cc1ccc(Nc2ncc(C(=O)N3CCCCC3C3CCCO3)cc2Cl)cn1 (stereo not shown) [Compound 4.44, [5-Chloro-6-(6-methyl-pyridin-3-ylamino)-pyridin-3-yl]-[2-(tetrahydro-furan-2-yl)-piperidin-1-yl]-methanone]",99
6,"Cc1ccc(Nc2ncc(C(=O)N3CCCCC3c3ccc(C)o3)cc2Cl)cn1 (stereo not shown) [Compound 4.45, [5-Chloro-6-(6-methyl-pyridin-3-ylamino)-pyridin-3-yl]-[2-(5-methyl-furan-2-yl)-piperidin-1-yl]-methanone]",90
7,"Cc1ccc(Nc2ncc(C(=O)N3CCCCC3c3ncco3)cc2Cl)cn1 (stereo not shown) [Compound 4.46, [5-Chloro-6-(6-methyl-pyridin-3-ylamino)-pyridin-3-yl]-(2-oxazol-2-yl-piperidin-1-yl)-methanone]",94
8,"Cc1ccc(Nc2ncc(C(=O)N3CCCCC3CCCl)cc2Cl)cn1 (stereo not shown) [Compound 4.47, [2-(2-Chloro-ethyl)-piperidin-1-yl]-[5-chloro-6-(6-methyl-pyridin-3-ylamino)-pyridin-3-yl]-methanone]",97
9,"Cc1ccc(Nc2ncc(C(=O)N3C(C)CCCC3C)cc2Cl)cn1 (stereo not shown) [Compound 4.48, [5-Chloro-6-(6-methyl-pyridin-3-ylamino)-pyridin-3-yl]-(2,6-dimethyl-piperidin-1-yl)-methanone]",99
10,"Cc1ccc(Nc2ncc(C(=O)N3C(C)(C)CCCC3(C)C)cc2Cl)cn1 [Compound 4.49, [5-Chloro-6-(6-methyl-pyridin-3-ylamino)-pyridin-3-yl]-(2,2,6,6-tetramethyl-piperidin-1-yl)-methanone]",66
11,"CCCC1CCCC(C)N1C(=O)c1cnc(Nc2ccc(C)nc2)c(Cl)c1 (stereo not shown) [Compound 4.50, [5-Chloro-6-(6-methyl-pyridin-3-ylamino)-pyridin-3-yl]-(2-methyl-6-propyl-piperidin-1-yl)-methanone]",98
12,"CCC[C@@H]1CCC[C@@H](CC)N1C(=O)c1cnc(Nc2ccc(C)nc2)c(Cl)c1 [Compound 4.51, [5-Chloro-6-(6-methyl-pyridin-3-ylamino)-pyridin-3-yl]-((2R,6R)-2-ethyl-6-propyl-piperidin-1-yl)-methanone]",96
13,"CCCC1CCC(C)CN1C(=O)c1cnc(Nc2ccc(C)nc2)c(Cl)c1 (stereo not shown) [Compound 4.52, [5-Chloro-6-(6-methyl-pyridin-3-ylamino)-pyridin-3-yl]-(5-methyl-2-propyl-piperidin-1-yl)-methanone]",96
14,"CC[C@@H]1CCCCN1C(=O)c1cnc(Nc2ccc(Cl)cc2)c(Cl)c1 [Compound 4.54, [5-Chloro-6-(4-chloro-phenylamino)-pyridin-3-yl]-((R)-2-ethyl-piperidin-1-yl)-methanone]",97
15,"C=CC1CCCCN1C(=O)c1cnc(Nc2ccc(C)nc2)c(Cl)c1 (stereo not shown) [Compound 4.55, [5-Chloro-6-(6-methyl-pyridin-3-ylamino)-pyridin-3-yl]-(2-vinyl-piperidin-1-yl)-methanone]",96
16,"CCC=C1CCCN(C(=O)c2cnc(Nc3ccc(C)nc3)c(Cl)c2)C1 [Compound 4.58, [5-Chloro-6-(6-methyl-pyridin-3-ylamino)-pyridin-3-yl]-[3-propylidene-piperidin-1-yl]-methanone]",93
17,"CCOCC1CCCCN1C(=O)c1cnc(Nc2ccc(C)nc2)c(Cl)c1 (stereo not shown) [Compound 4.60, [5-Chloro-6-(6-methyl-pyridin-3-ylamino)-pyridin-3-yl]-(2-ethoxymethyl-piperidin-1-yl)-methanone]",97
